Positions count from the first letter of the chain named. Several values for one entry are separate records, joined by “and”; a condition that tells them apart may be missing. Identical values can stand only once. Like-named read-outs stand apart in the source and are kept apart here.
What was measured:
PotF_Abox-S87Y = molecular target: T1, PotF_Abox-S87Y (Escherichia coli, UniProt P31133, F276W/S87Y); assay: ITC, PotF_Abox-S87Y (F276W, S87Y); type: binding; conditions: 293 K; for n: ITC binding stoichiometry; for ΔG / ΔH / −TΔS / Kd: ITC; for Kd: 50 mM Tris pH 8, 300 mM NaCl, biological triplicates
T1 construct: without the N-terminal signal peptide; made in house; host or cells: E. coli BL21 (DE3)
T1 sequence (P31133 27-370 S87Y/F276W): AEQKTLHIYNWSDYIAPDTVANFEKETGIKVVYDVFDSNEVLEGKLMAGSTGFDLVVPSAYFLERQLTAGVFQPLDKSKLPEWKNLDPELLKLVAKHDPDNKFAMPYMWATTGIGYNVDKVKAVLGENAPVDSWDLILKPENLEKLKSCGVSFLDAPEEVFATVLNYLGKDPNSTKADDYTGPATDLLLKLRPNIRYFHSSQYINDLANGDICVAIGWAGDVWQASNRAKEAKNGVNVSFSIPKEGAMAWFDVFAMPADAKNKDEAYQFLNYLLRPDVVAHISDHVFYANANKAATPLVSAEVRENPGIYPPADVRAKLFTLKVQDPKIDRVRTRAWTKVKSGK
Description: (§1) Ligands were always freshly prepared in the exact same buffer as was used for the size exclusion run. Samples were degassed, and temperature was equilibrated using a degassing station (TA Instruments). About 400 μl protein sample of different concentrations (Table S5) depending on affinity was transferred into the sample cell of a nanoITC (TA Instruments), and 50 μl of about tenfold concentrated ligand solution was loaded into the injection needle. Multiple injection measurements were carried out at 293 K, 300 rpm stirring rate, and 250 s spacings between each 2 μl injection. The heat quantity past injection was determined by integration of the measured peaks. Every protein–ligand combination was measured as biological triplicate. Subtraction of heat of dilution measurements, peak integration, and one site binding fits were done with NanoAnalyze (TA Instruments). Reported errors are the errors between fits of the measured triplicates.

PotF_Abox_Dist = molecular target: T2, PotF_Abox_Dist (Escherichia coli, UniProt P31133, A182D/F276W/L348Q/S87Y); assay: ITC, PotF_Abox_Dist (S87Y, A182D, L348Q, F276W); type: binding; conditions: 293 K
T2 construct: without the N-terminal signal peptide; made in house; host or cells: E. coli BL21 (DE3)
T2 sequence (P31133 27-370 S87Y/A182D/F276W/L348Q): T1 sequence (P31133 27-370 S87Y/F276W) with A156D, L322Q
Description: as §1

[1] = molecular target: T3, PotF/D–E39D–Y87S–F88Y–S247D (Escherichia coli, UniProt P31133, A182D/F276W/F88Y/L348Q/S38T); assay: ITC, PotF/D–E39D–Y87S–F88Y–S247D; type: binding; conditions: 293 K; for n: ITC binding stoichiometry; for ΔG / ΔH / −TΔS / Kd: ITC
T3 construct: without the N-terminal signal peptide; made in house; host or cells: E. coli BL21 (DE3)
T3 sequence (P31133 27-370 S38T/F88Y/A182D/F276W/L348Q): T1 sequence (P31133 27-370 S87Y/F276W) with S12T, Y61S, F62Y, A156D, L322Q
Description: as §1

PotF_Abox-L348Q = molecular target: T4, PotF_Abox-L348Q (Escherichia coli, UniProt P31133, F276W/L348Q); assay: ITC, PotF_Abox-L348Q (F276W, L348Q); type: binding; conditions: 293 K; for n: ITC binding stoichiometry; for ΔG / ΔH / −TΔS / Kd: ITC; for Kd: 50 mM Tris pH 8, 300 mM NaCl, biological triplicates
T4 construct: without the N-terminal signal peptide; made in house; host or cells: E. coli BL21 (DE3)
T4 sequence (P31133 27-370 F276W/L348Q): T1 sequence (P31133 27-370 S87Y/F276W) with Y61S, L322Q
Description: as §1

PotF = molecular target: PotF; design: method as in PMID 33406388; conditions: PotF wildtype, cited from earlier work
PotF_Abox_Prox = molecular target: T5, PotF_Abox_Prox (Escherichia coli, UniProt P31133, D247S/D39E/F276W/S38T); assay: ITC, PotF_Abox_Prox (S38T, D39E, D247S, F276W); type: binding; conditions: 293 K, 50 mM Tris pH 8, 300 mM NaCl, biological triplicates
T5 construct: without the N-terminal signal peptide; made in house; host or cells: E. coli BL21 (DE3)
T5 sequence (P31133 27-370 S38T/D39E/D247S/F276W): T1 sequence (P31133 27-370 S87Y/F276W) with S12T, D13E, Y61S, D221S
Description: as §1

[2] = ITC, 50 mM Tris pH 8, 300 mM NaCl, biological triplicates

## NCCCCN [PUT, putrescine]
PotF_Abox-S87Y
  n: 0.92 ± 0.03
  ΔG: -6.47 ± 0.02 kcal/mol
  ΔH: -9.97 ± 0.20 kcal/mol
  −TΔS: 3.50 ± 0.18 kcal/mol
  Kd: 14.9 ± 0.54 µM
PotF_Abox_Dist; [2]
  KD: not detectable
[1]
  n: 0.90 ± 0.01
  ΔG: -5.51 ± 0.02 kcal/mol
  ΔH: -4.15 ± 0.05 kcal/mol
  −TΔS: -1.36 ± 0.05 kcal/mol
[1]; 50 mM Tris pH 8, 300 mM NaCl, biological triplicates, read-out: KD
  Kd: 77.9 ± 3.17 µM
PotF_Abox-L348Q
  n: 0.94 ± 0.03
  ΔG: -7.48 ± 0.02 kcal/mol
  ΔH: -14.22 ± 0.75 kcal/mol
  −TΔS: 6.74 ± 0.74 kcal/mol
  Kd: ~3.3 µM and 2.66 µM
PotF; ITC
  Kd: 0.07 ± 0.04 µM
  ΔG: -9.74 ± 0.40 kcal/mol
  ΔH: -23.02 ± 0.12 kcal/mol
  −TΔS: 13.28 ± 0.52 kcal/mol
PotF
  Kd: ~0.068 µM
PotF_Abox_Prox
  KD: no binding

## NCCCCNCCCN [SPD, spermidine]
PotF_Abox-S87Y
  n: 0.97 ± 0.02
  ΔG: -6.30 ± 0.02 kcal/mol
  ΔH: -5.66 ± 0.12 kcal/mol
  −TΔS: -0.65 ± 0.12 kcal/mol
  Kd: 20 ± 0.7 µM
PotF_Abox_Dist; ITC binding stoichiometry
  n: 0.94 ± 0.00
PotF_Abox_Dist; ITC
  ΔG: -6.85 ± 0.02 kcal/mol
  ΔH: -5.28 ± 0.07 kcal/mol
  −TΔS: -1.57 ± 0.09 kcal/mol
PotF_Abox_Dist; [2]
  Kd: ~7.8 µM and 7.8 µM and 7.77 µM
[1]
  n: 0.91 ± 0.02
  ΔG: -8.17 ± 0.17 kcal/mol
  ΔH: -5.46 ± 0.08 kcal/mol
  −TΔS: -2.71 ± 0.16 kcal/mol
[1]; read-out: SPD affinity (KD)
  Kd: 0.84 µM
PotF_Abox-L348Q
  n: 0.98 ± 0.01
  ΔG: -7.83 ± 0.68 kcal/mol
  ΔH: -7.72 ± 0.03 kcal/mol
  −TΔS: -0.11 ± 0.69 kcal/mol
  Kd: ~2.6 µM and 3.26 µM
PotF; ITC
  Kd: 29.7 ± 1.15 µM
  ΔG: -6.07 ± 0.02 kcal/mol
  ΔH: -3.65 ± 0.06 kcal/mol
  −TΔS: -2.42 ± 0.04 kcal/mol
PotF_Abox_Prox
  KD: very low
